Values joined by “and” are separate entries in the source; they are usually repeats but may differ in a detail not shown here. Equal entries are not always repeated. Where two headings read alike, the source gives them in different places.
Tests used:
AChE = AChE (Homo sapiens, UniProt P22303); test: Acetylcholinesterase inhibitory activity (Ellman's method); format: biochemical; conditions: acetylthiocholine substrate, 25 °C, read at 405 nm
Experimental: (§1) In total, 170 μL of Tris–HCl buffer (200 mM, pH 7.5) was added, then 20 μL of the tested compounds at different concentrations ([…]), and finally 20 μL of the enzyme solution (0.1 U mL1). […] In BChE and AChE assays, butyrylthiocholine iodide and acetylthiocholine were used as substrates, and DTNB was used as an indicator. MeOH was used to dissolve the tested samples. […] Blank tests were performed by replacing the enzyme (20 μL) with buffer and recording the absorbances.
(§2) Percentage inhibition was calculated as follows: %Inhibition=Reading B−Reading A/Reading B×100

BuChE = BuChE (Homo sapiens, UniProt P06276); test: Butyrylcholinesterase inhibitory activity (Ellman's method); format: biochemical; conditions: butyrylthiocholine iodide substrate, 25 °C, read at 405 nm
Experimental: as §1, §2

[1] = system: glutamate-induced excitotoxicity; conditions: low doses; cited from earlier work
NCI-H460 = NCI-H460 cell line; read-out: Cytotoxic activity IC50; cited from earlier work
MCF-7 = MCF-7 cell line; read-out: Cytotoxic activity IC50; cited from earlier work
SF-268 = SF-268 cell line; read-out: Cytotoxic activity IC50; cited from earlier work
MIA Pa Ca-2 = MIA Pa Ca-2 cell line; read-out: Cytotoxic activity IC50; cited from earlier work

Sequence of BuChE (P06276 29-602): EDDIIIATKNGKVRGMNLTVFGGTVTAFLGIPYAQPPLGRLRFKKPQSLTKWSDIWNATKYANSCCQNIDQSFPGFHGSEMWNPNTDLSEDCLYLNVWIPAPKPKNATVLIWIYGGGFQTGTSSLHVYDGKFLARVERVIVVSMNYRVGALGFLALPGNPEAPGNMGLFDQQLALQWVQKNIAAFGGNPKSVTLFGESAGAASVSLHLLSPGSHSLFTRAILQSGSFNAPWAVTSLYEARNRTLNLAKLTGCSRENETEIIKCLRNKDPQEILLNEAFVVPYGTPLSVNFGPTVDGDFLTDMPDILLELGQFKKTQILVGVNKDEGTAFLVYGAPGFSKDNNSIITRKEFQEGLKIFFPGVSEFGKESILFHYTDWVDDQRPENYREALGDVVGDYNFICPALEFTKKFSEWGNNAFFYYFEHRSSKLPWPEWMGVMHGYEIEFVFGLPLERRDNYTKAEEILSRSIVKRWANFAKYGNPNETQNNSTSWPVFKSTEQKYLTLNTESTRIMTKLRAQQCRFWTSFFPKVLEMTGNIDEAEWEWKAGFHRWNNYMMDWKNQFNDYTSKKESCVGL
Sequence of AChE (P22303 32-614): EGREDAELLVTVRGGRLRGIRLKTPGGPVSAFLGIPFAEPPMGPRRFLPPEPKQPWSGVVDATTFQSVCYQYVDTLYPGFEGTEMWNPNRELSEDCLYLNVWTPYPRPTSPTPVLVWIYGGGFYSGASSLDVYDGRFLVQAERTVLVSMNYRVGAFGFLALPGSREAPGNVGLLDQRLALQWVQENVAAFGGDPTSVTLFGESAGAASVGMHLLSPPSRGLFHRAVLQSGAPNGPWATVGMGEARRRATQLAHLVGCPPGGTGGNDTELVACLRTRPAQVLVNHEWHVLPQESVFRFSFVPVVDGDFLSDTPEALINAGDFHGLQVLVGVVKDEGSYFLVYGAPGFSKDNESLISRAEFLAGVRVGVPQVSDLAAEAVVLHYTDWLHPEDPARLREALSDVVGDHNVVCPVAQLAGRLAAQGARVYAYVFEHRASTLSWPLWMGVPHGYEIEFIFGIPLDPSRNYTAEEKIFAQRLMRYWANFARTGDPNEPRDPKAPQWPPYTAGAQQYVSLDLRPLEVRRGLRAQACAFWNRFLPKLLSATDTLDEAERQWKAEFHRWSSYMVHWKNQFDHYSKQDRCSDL

Row | SMILES | IC50 (AChE; Acetylcholine Esterase IC50, Ellman's method) | IC50 (BuChE; Butyryl Choline Esterase IC50, Ellman's method) | Neuroprotective activity against glutamate-induced excitotoxicity [1] | IC50 (AChE; Ellman's method, read-out: Acetylcholine Esterase IC50 (converted)) | IC50 (BuChE; Ellman's method, read-out: Butyryl Choline Esterase IC50 (converted)) | IC50 (NCI-H460) | IC50 (MCF-7) | IC50 (SF-268) | IC50 (MIA Pa Ca-2)
1 | CC1=C2C(=CO[C@H](C)[C@H]2C)C(O)=C(C(=O)O)C1=O [Citrinin] | 20.2 µM | 32 µM and 30.1 µM | potential neuroprotective activity |  |  |  |  |  | 
2 | C=CC(C)(C)c1[nH]c2ccccc2c1C1=C(O)C(=O)C(c2c[nH]c3ccccc23)=C(CC=C(C)C)C1=O [Terrequinone A] |  |  |  | 22.6 µM | 31.9 µM | 5.6 µM | 6.8 µM | 13.9 µM | 5.4 µM
